Patent EP4721758A1, “NOVEL MEDICINE FOR TREATING OSTEOSARCOMA” (Japanese Foundation For Cancer Research, priority 2023, dated 2024)

Tested on: osteosarcoma cells
Assay: Cell viability after 1 µM obatoclax or navitoclax (CellTiter-Glo)
Assay type: cell-based, human
Details: 72 hours, 11 types of osteosarcoma cells, Fig. 1B
Method: Among these five compounds, obatoclax, a pan-BH3 mimetic, was further investigated. Specifically, the osteosarcoma cells (the above described 11 types of osteosarcoma cells) were seeded in triplicate at a density of 2000 cells/well on 96-well plates (Greiner) or type I collagen-coated plates (IWAKI) and cultured for at least 24 hours. The osteosarcoma cells (i.e., the above described 11 types) were then treated with 1 µ(micro)M obatoclax for 72 hours, after which cell viability was measured using the CellTiter-Glo assay reagent.

## CC1(C)CCC(c2ccc(Cl)cc2)=C(CN2CCN(c3ccc(C(=O)NS(=O)(=O)c4ccc(N[C@H](CCN5CCOCC5)CSc5ccccc5)c(S(=O)(=O)C(F)(F)F)c4)cc3)CC2)C1 [navitoclax]
  cell viability: little effect on osteosarcoma cell proliferation
